The target of one assay is DGKζ (Homo sapiens (Human), UniProt Q13574). Description: Biochemical DGK IC50 assay (ADP-Glo, lipid micelle substrate), DGKζ. Particulars: full length DGKζ 0.5 nM, ATP 140 μM, DAG 80 μM. In short, it runs like this:
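Full-length human His-TEV-tagged DGKζ, expressed in Sf9 cells and purified, was run at room temperature on DAG/PS lipid micelles in 50 mM HEPES, 10 mM MgCl2, 0.01 mM CaCl2 buffer. After 1 h reaction, ADP formed was detected by ADP-Glo luminescence. IC50s came from inhibition across increasing compound concentrations.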
(ADP-Glo turns the ADP formed in a reaction into a luminescent signal.)

In the next assay the target is DGKα (Homo sapiens (Human), UniProt P23743). The assay is described as follows: Biochemical DGK IC50 assay (ADP-Glo, lipid micelle substrate), DGKα. Note: full length DGKα 7.5 nM. Particulars: full length DGKα […], ATP 140 μM, DAG 80 μM. In short, it runs like this: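 Full-length human DGKα assayed by ADP-Glo with DAG/PS lipid micelle substrate at room temperature in 50 mM HEPES, 10 mM MgCl2, 0.01% BSA, 0.1 mM Na3VO4, 0.005% Tween-20, 0.01 mM CaCl2.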

33 compounds from US20250346597A1, “CONDENSED HETEROCYCLIC COMPOUNDS AS INHIBITOR OF DIACYLGLYCEROL KINASES” (BEONE MEDICINES I GMBH, priority 2023, published 2025) can be followed below.

Sequence of DGKζ (Q13574 other isoform, or with tags, fused parts or gaps): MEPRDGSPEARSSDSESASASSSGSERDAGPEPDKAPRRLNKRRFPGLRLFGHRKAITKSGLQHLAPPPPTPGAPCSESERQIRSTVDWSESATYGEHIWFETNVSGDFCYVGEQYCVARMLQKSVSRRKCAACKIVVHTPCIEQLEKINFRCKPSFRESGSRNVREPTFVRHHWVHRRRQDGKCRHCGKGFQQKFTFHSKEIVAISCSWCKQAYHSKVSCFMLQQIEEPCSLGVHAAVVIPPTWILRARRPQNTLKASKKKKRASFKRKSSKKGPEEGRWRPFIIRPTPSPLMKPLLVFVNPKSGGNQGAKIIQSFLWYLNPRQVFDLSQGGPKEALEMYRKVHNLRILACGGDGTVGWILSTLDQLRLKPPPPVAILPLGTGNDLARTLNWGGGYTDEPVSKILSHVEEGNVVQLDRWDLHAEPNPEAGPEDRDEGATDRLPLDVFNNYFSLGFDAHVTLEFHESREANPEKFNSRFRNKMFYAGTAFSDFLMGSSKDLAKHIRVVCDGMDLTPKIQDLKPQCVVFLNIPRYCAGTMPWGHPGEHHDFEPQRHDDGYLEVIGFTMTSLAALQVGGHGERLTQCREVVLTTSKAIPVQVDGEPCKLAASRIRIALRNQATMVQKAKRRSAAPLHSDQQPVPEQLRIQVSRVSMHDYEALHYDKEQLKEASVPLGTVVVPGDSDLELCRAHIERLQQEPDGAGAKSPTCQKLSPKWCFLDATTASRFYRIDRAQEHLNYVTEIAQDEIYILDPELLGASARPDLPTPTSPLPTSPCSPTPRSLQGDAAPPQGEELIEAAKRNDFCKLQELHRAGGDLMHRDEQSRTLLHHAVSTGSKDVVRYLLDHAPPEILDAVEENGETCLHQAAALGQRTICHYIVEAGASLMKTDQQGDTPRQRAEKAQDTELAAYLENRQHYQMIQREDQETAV
Sequence of DGKα (P23743 whole entry): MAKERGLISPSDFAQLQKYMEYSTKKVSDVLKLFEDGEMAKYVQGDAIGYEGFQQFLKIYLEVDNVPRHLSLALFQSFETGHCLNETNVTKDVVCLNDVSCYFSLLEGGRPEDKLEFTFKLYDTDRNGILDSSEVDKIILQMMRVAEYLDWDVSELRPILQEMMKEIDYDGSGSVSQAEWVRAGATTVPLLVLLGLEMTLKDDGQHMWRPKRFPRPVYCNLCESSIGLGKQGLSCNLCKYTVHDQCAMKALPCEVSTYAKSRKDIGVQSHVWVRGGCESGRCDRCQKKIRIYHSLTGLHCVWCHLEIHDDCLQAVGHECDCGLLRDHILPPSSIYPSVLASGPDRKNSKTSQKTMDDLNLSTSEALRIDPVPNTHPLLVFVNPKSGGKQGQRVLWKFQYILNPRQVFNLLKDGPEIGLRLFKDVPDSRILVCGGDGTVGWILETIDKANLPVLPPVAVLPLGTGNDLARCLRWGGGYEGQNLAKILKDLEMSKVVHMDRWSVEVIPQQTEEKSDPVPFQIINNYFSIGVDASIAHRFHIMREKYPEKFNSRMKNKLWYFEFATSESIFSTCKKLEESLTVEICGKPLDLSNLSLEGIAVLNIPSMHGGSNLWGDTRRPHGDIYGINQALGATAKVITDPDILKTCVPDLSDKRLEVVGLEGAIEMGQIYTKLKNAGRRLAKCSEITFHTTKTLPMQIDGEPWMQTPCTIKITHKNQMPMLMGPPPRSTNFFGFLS

On to `CC[C@H]1CN(C(C)c2ccn3nc(C)c(F)c3c2)[C@H](CC)CN1c1cc(=O)n(C)c2cn(CC#N)nc12` (single isomer, unassigned) [Compound A169b], for which the IC50 – broadly, the concentration that inhibits the measured activity by half – at DGKζ was 9280 nM; at DGKα it was above 10000 nM.
Taken in the same sequence, the figures for `CC[C@H]1CN(C(C)c2cc(F)c(CN3CCS(=O)(=O)CC3)c(F)c2)[C@H](CC)CN1c1cc(=O)n(C)c2cn(CC#N)nc12` (stereo partly drawn) [Compound A5, 2-(7-((2S,5R)-4-(1-(4-((1,1-dioxidothiomorpholino)methyl)-3,5-difluorophenyl)ethyl)-2,5-diethylpiperazin-1-yl)-4-methyl-5-oxo-4,5-dihydro-2H-pyrazolo[4,3-b]pyridin-2-yl)acetonitrile] were 73 nM and 497 nM.
In the same order, the values of `Cc1cc2nc(C(C)N3C[C@H](C)N(c4cc(=O)n(C)c5cn(CC#N)nc45)C[C@H]3C)ccc2s1` (single isomer, unassigned) [Compound A155a] are 20 nM and 1140 nM.
`CC[C@H]1CN(C(C)c2ccn3nc(Cl)cc3n2)[C@H](CC)CN1c1cc(=O)n(C)c2cn(CC#N)nc12` (stereo partly drawn) [Compound A175, 2-(7-((2S,5R)-4-(1-(2-chloropyrazolo[1,5-a]pyrimidin-5-yl)ethyl)-2,5-diethylpiperazin-1-yl)-4-methyl-5-oxo-4,5-dihydro-2H-pyrazolo[4,3-b]pyridin-2-yl)acetonitrile]: the values for the IC50 on DGKζ and at DGKα were 79 nM and 32 nM, respectively.
In the same order, the values of `CC#CCn1cc2c(n1)c(N1C[C@@H](CC)N(C(C)c3ccc4sc(C)nc4c3F)C[C@@H]1CC)cc(=O)n2C` (single isomer, unassigned) [Compound A141b] are 641 nM and 6190 nM.
Taken in the same sequence, the figures for `CC(c1cc2c(cc1F)OCC(C)(C)O2)N1C[C@H](C)N(c2cc(=O)n(C)c3cn(CC#N)nc23)C[C@H]1C` (single isomer, unassigned) [Compound A179b] were 323 nM and 3190 nM.
In the same order, the values of `CC[C@H]1CN(C(C)c2ccc(C3CC3)nc2)[C@H](CC)CN1c1cc(=O)n(C)c2cn(CC#N)nc12` (single isomer, unassigned) [Compound A38a] are 126 nM and 810 nM.
With `CC[C@H]1CN(C(C)c2ccc(C3CC3)nc2F)[C@H](CC)CN1c1cc(=O)n(C)c2cn(CC#N)nc12` (single isomer, unassigned) [Compound A45a], the IC50 at DGKζ was determined as 30 nM; on DGKα, 202 nM.
For `CCC(c1ccn2nc(C)cc2n1)N1C[C@H](C)N(c2cc(=O)n(C)c3cn(CC#N)nc23)C[C@H]1CC` (single isomer, unassigned) [Compound A171b], the IC50 on DGKζ was found to be 5430 nM; against DGKα it was 2690 nM.
In the same order, the values of `CC[C@H]1CN(C(C)c2ccn3nccc3n2)[C@H](CC)CN1c1nc(=O)n(C)c2cn(CC#N)nc12` (single isomer, unassigned) [Compound A163a] are above 10000 nM and 1900 nM.
In the same order, the values of `CC[C@H]1CN(C(C)c2ncc(C3CC3)cc2C)[C@H](CC)CN1c1cc(=O)n(C)c2cn(CC#N)nc12` (stereo partly drawn) [Compound A57, 2-(7-((2S,5R)-4-(1-(5-cyclopropyl-3-methylpyridin-2-yl)ethyl)-2,5-diethylpiperazin-1-yl)-4-methyl-5-oxo-4,5-dihydro-2H-pyrazolo[4,3-b]pyridin-2-yl)acetonitrile] are 51 nM and 14300 nM.
Taken in the same sequence, the figures for `CC[C@H]1CN(C(C)c2ccc(C(=O)N3CCC(OC)CC3)cc2)[C@H](CC)CN1c1cc(=O)n(C)c2cn(CC#N)nc12` (single isomer, unassigned) [Compound A194b] were 6050 nM and 2530 nM.
As for `CC[C@H]1CN(C(C)c2ccc(C(=O)N(C)CCOC)cc2)[C@H](CC)CN1c1cc(=O)n(C)c2cn(CC#N)nc12` (single isomer, unassigned) [Compound A195b], the IC50 at DGKζ was above 10000 nM; on DGKα it was 4210 nM.
With `CC[C@@H]1CN(c2cc(=O)n(C)c3cn(CC#N)nc23)[C@@H](C)CN1[C@@H](C)c1ccc2ncoc2c1` (single isomer, unassigned) [Compound A85a], the IC50 against DGKζ stood at 78 nM; on DGKα, 170 nM.
Taken in the same sequence, the figures for `CC[C@H]1CN(C(C)c2ccn3ncc(C)c3n2)[C@H](CC)CN1c1cc(=O)n(C)c2cn(CC#N)nc12` (single isomer, unassigned) [Compound A151b] were 7.5 nM and 156 nM.
Taken in the same sequence, the figures for `CC[C@@H]1CN(c2cc(=O)n(C)c3cn(CC#N)nc23)[C@@H](C)CN1C(C)c1ccc2nc(C)sc2c1F` (single isomer, unassigned) [Compound A104a] were 6.5 nM and 3150 nM.
Turning to `CC[C@H]1CN(C(C)c2cc(F)c(CN(C)C)c(F)c2)[C@H](CC)CN1c1cc(=O)n(C)c2cn(CC#N)nc12` (single isomer, unassigned) [Compound A25a], the IC50 stood at 246 nM against DGKζ and 3380 nM on DGKα.
Consider `CC[C@H]1CN(C(C)c2cnc(C3CC3)cc2F)[C@H](CC)CN1c1cc(=O)n(C)c2cn(CC#N)nc12` (single isomer, unassigned) [Compound A47a], for which the IC50 came to 88 nM against DGKζ and 1190 nM at DGKα.
In the same order, the values of `CC[C@H]1CN(C(C)c2cc(F)c(C3CC3)cn2)[C@H](CC)CN1c1cc(=O)n(C)c2cn(CC#N)nc12` (stereo partly drawn) [Compound A63, 2-(7-((2S,5R)-4-(1-(5-cyclopropyl-4-fluoropyridin-2-yl)ethyl)-2,5-diethylpiperazin-1-yl)-4-methyl-5-oxo-4,5-dihydro-2H-pyrazolo[4,3-b]pyridin-2-yl)acetonitrile] are 21 nM and 167 nM.
Taken in the same sequence, the figures for `CC#CCn1cc2c(n1)c(N1C[C@@H](CC)N(C(C)c3ccc4sc(C)nc4c3F)C[C@@H]1CC)cc(=O)n2C` (single isomer, unassigned) [Compound A141a] were 17.6 nM and 1390 nM.
As for `CC[C@H]1CN(C(C)c2ccc(CC#N)cc2)[C@H](CC)CN1c1cc(=O)n(C)c2cn(CC#N)nc12` (stereo partly drawn) [Compound A190, 2-(4-(1-((2R,5S)-4-(2-(cyanomethyl)-4-methyl-5-oxo-4,5-dihydro-2H-pyrazolo[4,3-b]pyridin-7-yl)-2,5-diethylpiperazin-1-yl)ethyl)phenyl)acetonitrile], the IC50 was found to be 651 nM against DGKζ and 45 nM against DGKα.
For the compound `CC[C@H]1CN(C(C)c2ccc3cc(C(F)F)sc3n2)[C@H](CC)CN1c1cc(=O)n(C)c2cn(CC#N)nc12` (single isomer, unassigned) [Compound A144a], the IC50 came to 1300 nM against DGKζ and 270 nM at DGKα.
Taken in the same sequence, the figures for `CC[C@@H]1CN(c2cc(=O)n(C)c3cn(CC#N)nc23)[C@@H](C)CN1C(C)c1ccn2nccc2n1` (single isomer, unassigned) [Compound A166b] were above 10000 nM and 1630 nM.
In the same order, the values of `CC#CCn1cc2c(n1)c(N1C[C@@H](CC)N(C(C)c3ccc4nc(C)sc4c3)C[C@@H]1CC)cc(=O)n2C` (single isomer, unassigned) [Compound A114a] are 83 nM and 32 nM.
`CC[C@H]1CN(C(C)c2ccc3ncsc3n2)[C@H](CC)CN1c1nc(=O)n(C)c2cn(CC#N)nc12` (single isomer, unassigned) [Compound A126a]: the figures for the IC50 against DGKζ and at DGKα were 1320 nM and 1370 nM, respectively.
Taken in the same sequence, the figures for `CC[C@H]1CN([C@@H](C)c2ccc(OC(C)C)cc2)[C@H](CC)CN1c1cc(=O)n(C)c2cn(CC#N)nc12` [Compound A33b] were 770 nM and 344 nM.
In the same order, the values of `CC[C@H]1CN(C(C)c2ccn3nccc3c2)[C@H](CC)CN1c1nc(=O)n(C)c2cn(CC#N)nc12` (single isomer, unassigned) [Compound A159a] are 56 nM and 38 nM.
In the same order, the values of `CC[C@H]1CN(C(C)c2ccc(C(=O)N3CCC(OC)CC3)cc2)[C@H](CC)CN1c1cc(=O)n(C)c2cn(CC#N)nc12` (single isomer, unassigned) [Compound A194a] are 1450 nM and 291 nM.
Turning to `CC[C@H]1CN(C(C)c2ccc(CC3COC3)cc2)[C@H](CC)CN1c1cc(=O)n(C)c2cn(CC#N)nc12` (stereo partly drawn) [Compound A183, 2-(7-((2S,5R)-2,5-diethyl-4-(1-(4-(oxetan-3-ylmethyl)phenyl)ethyl)piperazin-1-yl)-4-methyl-5-oxo-4,5-dihydro-2H-pyrazolo[4,3-b]pyridin-2-yl)acetonitrile], the values for the IC50 against DGKζ and at DGKα were 517 nM and 48.2 nM, respectively.
Taken in the same sequence, the figures for `CC[C@@H]1CN(c2cc(=O)n(C)c3cn(CC#N)nc23)[C@@H](C)CN1C(C)c1ccn2nc(C)cc2n1` (single isomer, unassigned) [Compound A172b] were above 10000 nM and 7830 nM.
Taken in the same sequence, the figures for `CC[C@H]1CN(C(C)c2ccn3nc(C)c(F)c3n2)[C@H](CC)CN1c1nc(=O)n(C)c2cn(CC#N)nc12` (single isomer, unassigned) [Compound A170b] were 52.5 nM and 109 nM.
As for `CC[C@H]1CN(C(C)c2ccc3c(c2)CCC3(C)C)[C@H](CC)CN1c1cc(=O)n(C)c2cn(CC#N)nc12` (stereo partly drawn) [Compound A66, 2-(7-((2S,5R)-4-(1-(1,1-dimethyl-2,3-dihydro-1H-inden-5-yl)ethyl)-2,5-diethylpiperazin-1-yl)-4-methyl-5-oxo-4,5-dihydro-2H-pyrazolo[4,3-b]pyridin-2-yl)acetonitrile], the IC50 is 96 nM on DGKζ and 2250 nM at DGKα.
Taken in the same sequence, the figures for `CC#CCn1cc2c(n1)c(N1C[C@@H](CC)N(C(C)c3cnc4ccccc4n3)C[C@@H]1CC)cc(=O)n2C` (single isomer, unassigned) [Compound A206b] were 103 nM and 25 nM.
